This is an account of results in US11708348B2, “Protease inhibitors for treatment of coronavirus infections” (The Scripps Research Institute, priority 2021, dated 2023).

The assay concerns SARS-CoV-2 strain USA-WA1/2020. Kind of assay: microbe, parasite or virus in culture. It counts as cell-based. The note with it: Severe acute respiratory syndrome coronavirus 2, HeLa-ACE2, 24 h, HeLa-ACE2 cells, SARS-CoV-2 infection, 24 h; read-out: EC50, uM (Hela).
By EC50 is commonly meant the midpoint of the concentration-response curve. Consider `CC(C)(O)CC(=O)N1CC2(CC2)C[C@H]1C(=O)N[C@@H](C[C@@H]1CCNC1=O)C(=O)COC(F)(F)F` [Compound 717, (S)-5-(3-hydroxy-3-methylbutanoyl)-N-((S)-3-oxo-1-((S)-2-oxopyrrolidin-3-yl)-4-(trifluoromethoxy)butan-2-yl)-5-azaspiro[2.4]heptane-6-carboxamide], for which the EC50 lay in the range of 0.05 to 0.2 µM. Under `O=C1NCC[C@H]1C[C@H](NC(=O)[C@@H]1CC2(CC2)CN1C(=O)[C@@H]1C[C@H]1C(F)(F)F)C(=O)COC(F)(F)F` [Compound 718, (S)-N-((S)-3-oxo-1-((S)-2-oxopyrrolidin-3-yl)-4-(trifluoromethoxy)butan-2-yl)-5-((1R,2R)-2-(trifluoromethyl)cyclopropane-1-carbonyl)-5-azaspiro[2.4]heptane-6-carboxamide] stands under 0.05 µM; under `CC(C)C[C@H](O)C(=O)N[C@@H](C[C@@H]1CCNC1=O)C(=O)COC(F)(F)F` [Compound 719, (S)-2-hydroxy-4-methyl-N-((S)-3-oxo-1-((S)-2-oxopyrrolidin-3-yl)-4-(trifluoromethoxy)butan-2-yl)pentanamide], 0.5 to 1 µM; under `O=C1NCC[C@H]1C[C@H](NC(=O)[C@@H]1CC2(CC2)CN1C(=O)C1CCC(F)(F)C1)C(=O)COC(F)(F)F` (stereo partly drawn) [Compound 720, (6S)-5-(3,3-difluorocyclopentane-1-carbonyl)-N-((S)-3-oxo-1-((S)-2-oxopyrrolidin-3-yl)-4-(trifluoromethoxy)butan-2-yl)-5-azaspiro[2.4]heptane-6-carboxamide], under 0.05 µM. Under `O=C1NCC[C@H]1C[C@H](NC(=O)[C@@H]1CC2(CC2)CN1C(=O)C1CC(F)(F)C1)C(=O)COC(F)(F)F` [Compound 721, (S)-5-(3,3-difluorocyclobutane-1-carbonyl)-N-((S)-3-oxo-1-((S)-2-oxopyrrolidin-3-yl)-4-(trifluoromethoxy)butan-2-yl)-5-azaspiro[2.4]heptane-6-carboxamide] stands 0.05 to 0.2 µM; under `C[C@@](O)(C(=O)N1CC2(CC2)C[C@H]1C(=O)N[C@@H](C[C@@H]1CCNC1=O)C(=O)COC(F)(F)F)C(F)(F)F` [Compound 722, (S)-N-((S)-3-oxo-1-((S)-2-oxopyrrolidin-3-yl)-4-(trifluoromethoxy)butan-2-yl)-5-((R)-3,3,3-trifluoro-2-hydroxy-2-methylpropanoyl)-5-azaspiro[2.4]heptane-6-carboxamide], 0.05 to 0.2 µM; under `O=C1NCC[C@H]1C[C@H](NC(=O)[C@@H]1CC2(CC2)CN1C(=O)C1CCCC1)C(=O)COC(F)(F)F` [Compound 723, (S)-5-(cyclopentanecarbonyl)-N-((S)-3-oxo-1-((S)-2-oxopyrrolidin-3-yl)-4-(trifluoromethoxy)butan-2-yl)-5-azaspiro[2.4]heptane-6-carboxamide], 0.05 to 0.2 µM. With `CC(=O)N1C[C@H](C(F)(F)F)C[C@H]1C(=O)N[C@@H](C[C@@H]1CCNC1=O)C(=O)COC(F)(F)F` [Compound 724, (2S,4R)-1-acetyl-N-((S)-3-oxo-1-((S)-2-oxopyrrolidin-3-yl)-4-(trifluoromethoxy)butan-2-yl)-4-(trifluoromethyl)pyrrolidine-2-carboxamide] the figure was 0.05 to 0.2 µM.

On to `CC(C)[C@H](O)[C@@H](O)C(=O)N1CC2(CC2)C[C@H]1C(=O)N[C@@H](C[C@@H]1CCNC1=O)C(=O)COC(F)(F)F` [Compound 726, (S)-5-((2R,3S)-2,3-dihydroxy-4-methylpentanoyl)-N-((S)-3-oxo-1-((S)-2-oxopyrrolidin-3-yl)-4-(trifluoromethoxy)butan-2-yl)-5-azaspiro[2.4]heptane-6-carboxamide], for which the EC50 was 0.2 to 0.5 µM. `[2H]C([2H])([2H])C([2H])([2H])C([2H])([2H])C([2H])([2H])C(=O)N1CC2(CC2)C[C@H]1C(=O)N[C@@H](C[C@@H]1CCNC1=O)C(=O)COC(F)(F)F` [Compound 732, (S)-N-((S)-3-oxo-1-((S)-2-oxopyrrolidin-3-yl)-4-(trifluoromethoxy)butan-2-yl)-5-(pentanoyl-d9)-5-azaspiro[2.4]heptane-6-carboxamide]: the EC50 was under 0.05 µM. Take `[2H]C([2H])([2H])C([2H])([2H])C([2H])([2H])C([2H])([2H])C([2H])([2H])C(=O)N1CC2(CC2)C[C@H]1C(=O)N[C@@H](C[C@@H]1CCNC1=O)C(=O)COC(F)(F)F` [Compound 733, (S)-5-(hexanoyl-d 11)-N-((S)-3-oxo-1-((S)-2-oxopyrrolidin-3-yl)-4-(trifluoromethoxy)butan-2-yl)-5-azaspiro[2.4]heptane-6-carboxamide]: the EC50 was under 0.05 µM.

Turning to `[2H]C([2H])([2H])C([2H])(C([2H])([2H])[2H])C([2H])([2H])C([2H])([2H])C(=O)N1CC2(CC2)C[C@H]1C(=O)N[C@@H](C[C@@H]1CCNC1=O)C(=O)COC(F)(F)F` [Compound 734, (S)-5-(4-(methyl-d3)pentanoyl-2,2,3,3,4,5,5,5-d8)-N-((S)-3-oxo-1-((S)-2-oxopyrrolidin-3-yl)-4-(trifluoromethoxy)butan-2-yl)-5-azaspiro[2.4]heptane-6-carboxamide], the EC50 was under 0.05 µM. Under `CC(C)(F)C(=O)N1CC2(CC2)C[C@H]1C(=O)N[C@@H](C[C@@H]1CCNC1=O)C(=O)COC(F)(F)F` [Compound 735, (S)-5-(2-fluoro-2-methylpropanoyl)-N-((S)-3-oxo-1-((S)-2-oxopyrrolidin-3-yl)-4-(trifluoromethoxy)butan-2-yl)-5-azaspiro[2.4]heptane-6-carboxamide] stands under 0.05 µM. In the case of `[2H]C([2H])([2H])C([2H])([2H])C([2H])([2H])C(=O)N1CC2(CC2)C[C@H]1C(=O)N[C@@H](C[C@@H]1CCNC1=O)C(=O)COC(F)(F)F` [Compound 736, (S)-5-(butanoyl-d7)-N-((S)-3-oxo-1-((S)-2-oxopyrrolidin-3-yl)-4-(trifluoromethoxy)butan-2-yl)-5-azaspiro[2.4]heptane-6-carboxamide], the EC50 was under 0.05 µM.

As for `[2H]C([2H])([2H])C([2H])(C([2H])([2H])[2H])C([2H])([2H])C(=O)N1CC2(CC2)C[C@H]1C(=O)N[C@@H](C[C@@H]1CCNC1=O)C(=O)COC(F)(F)F` [Compound 737, (S)-5-(3-(methyl-d3)butanoyl-2,2,3,4,4,4-d6)-N-((S)-3-oxo-1-((S)-2-oxopyrrolidin-3-yl)-4-(trifluoromethoxy)butan-2-yl)-5-azaspiro[2.4]heptane-6-carboxamide], the EC50 is under 0.05 µM. As to `[2H]C(C)(C)C(=O)N1CC2(CC2)C[C@H]1C(=O)N[C@@H](C[C@@H]1CCNC1=O)C(=O)COC(F)(F)F` [Compound 738, (S)-5-(2-methylpropanoyl-2-d)-N-((S)-3-oxo-1-((S)-2-oxopyrrolidin-3-yl)-4-(trifluoromethoxy)butan-2-yl)-5-azaspiro[2.4]heptane-6-carboxamide], the EC50 was 0.05 to 0.2 µM. With `[2H]C([2H])([2H])C(C(=O)N1CC2(CC2)C[C@H]1C(=O)N[C@@H](C[C@@H]1CCNC1=O)C(=O)COC(F)(F)F)C([2H])([2H])[2H]` [Compound 739, (S)-5-(2-(methyl-d3)propanoyl-3,3,3-d3)-N-((S)-3-oxo-1-((S)-2-oxopyrrolidin-3-yl)-4-(trifluoromethoxy)butan-2-yl)-5-azaspiro[2.4]heptane-6-carboxamide] the figure was 0.05 to 0.2 µM; with `[2H]C([2H])(CCCC)C(=O)N1CC2(CC2)C[C@H]1C(=O)N[C@@H](C[C@@H]1CCNC1=O)C(=O)COC(F)(F)F` [Compound 740, (S)-5-(hexanoyl-2,2-d2)-N-((S)-3-oxo-1-((S)-2-oxopyrrolidin-3-yl)-4-(trifluoromethoxy)butan-2-yl)-5-azaspiro[2.4]heptane-6-carboxamide], under 0.05 µM; with `COc1cccc([C@@H](O)C(=O)N2C[C@H]3[C@@H]([C@H]2C(=O)N[C@@H](C[C@@H]2CCNC2=O)C(=O)COC(F)(F)F)C3(C)C)c1F` [Compound 741, (1R,2S,5S)-3-((R)-2-(2-fluoro-3-methoxyphenyl)-2-hydroxyacetyl)-6,6-dimethyl-N-((S)-3-oxo-1-((S)-2-oxopyrrolidin-3-yl)-4-(trifluoromethoxy)butan-2-yl)-3-azabicyclo[3.1.0]hexane-2-carboxamide], under 0.05 µM. Turning to `CC(C)(C)C[C@H](NC(=O)C(=O)Nc1cccc(C(F)(F)F)n1)C(=O)N[C@@H](C[C@@H]1CCCNC1=O)C(=O)CO` [Compound 742, N1-((S)-1-(((S)-4-hydroxy-3-oxo-1-((S)-2-oxopiperidin-3-yl)butan-2-yl)amino)-4,4-dimethyl-1-oxopentan-2-yl)-N2-(6-(trifluoromethyl)pyridin-2-yl)oxalamide], the EC50 lay in the range of 0.2 to 0.5 µM. For the compound `O=C(CC(C(F)(F)F)C(F)(F)F)C(=O)N1CC2(CC2)C[C@H]1C(=O)N[C@@H](C[C@@H]1CCNC1=O)C(=O)COC(F)(F)F` [Compound 743, (S)-N-((S)-3-oxo-1-((S)-2-oxopyrrolidin-3-yl)-4-(trifluoromethoxy)butan-2-yl)-5-(5,5,5-trifluoro-2-oxo-4-(trifluoromethyl)pentanoyl)-5-azaspiro[2.4]heptane-6-carboxamide], the EC50 is under 0.05 µM. In the case of `O=C1NCC[C@H]1C[C@H](NC(=O)[C@@H]1CC2(CC2)CN1C(=O)[C@H](O)CC(C(F)(F)F)C(F)(F)F)C(=O)COC(F)(F)F` [Compound 744, (S)-N-((S)-3-oxo-1-((S)-2-oxopyrrolidin-3-yl)-4-(trifluoromethoxy)butan-2-yl)-5-((R)-5,5,5-trifluoro-2-hydroxy-4-(trifluoromethyl)pentanoyl)-5-azaspiro[2.4]heptane-6-carboxamide], the EC50 was under 0.05 µM. With `O=C1NCC[C@H]1C[C@H](NC(=O)[C@@H]1CC2(CC2)CN1C(=O)[C@@H](O)CC(C(F)(F)F)C(F)(F)F)C(=O)COC(F)(F)F` [Compound 745, (S)-N-((S)-3-oxo-1-((S)-2-oxopyrrolidin-3-yl)-4-(trifluoromethoxy)butan-2-yl)-5-((S)-5,5,5-trifluoro-2-hydroxy-4-(trifluoromethyl)pentanoyl)-5-azaspiro[2.4]heptane-6-carboxamide] the figure was under 0.05 µM.
